Experimental findings from patent publication US20210283163A1, “COMPOSITIONS AND METHODS FOR THE TREATMENT OF ACUTE AND CHRONIC PRURITIS” (Duke University, priority 2018, published 2021) are described below.

Like-named read-outs stand apart in the source and are kept apart here.

In one series the target is hTRPA1 (Homo sapiens, UniProt O75762). In words: Whole-cell patch clamp, inward currents in HEK293 cells expressing hTRPA1. The series is classed as cell-based. On the procedure:
Cell Culture and Transfection. CD4^+ Myla cell line was cultured in RPMI 1640 media (GIBCO), supplemented with 2 mM Glutamine (GIBCO), 100 U/mL IL-2 (Sigma), 100 U/mL IL-4 (Sigma), and 10% human AB serum (Sigma). HuT 102 cell line was cultured in RPMI 1640 supplemented with pyruvate, HEPES, and 10% (v/v) fetal bovine serum (HyClone). HEK293-hTRPA1 stable cell line was cultured in MEM (GIBCO) containing 2 mM Glutamine, 4 μg/mL Blasticidin, 10% FBS (v/v). B16 and CHO cells were cultured in high glucose (4.5 g/L) Dulbecco's Modified Eagle's Medium (GIBCO) containing 10% (v/v) fetal bovine serum (GIBCO). Culture media were supplemented with 50 units/mL of penicillin and 50 μg/mL streptomycin, and cultures were maintained with 5% CO2 in 37° C. incubator. Transfection (2 μg cDNA) was performed with Lipofectamine™ 2000 Reagent (Invitrogen) at 80% confluency and the transfected cells were cultured in the same media for 48 hr before electrophysiological and biochemical studies.
(§1) Whole-Cell Patch Clamp Recordings in HEK293 Cells, CHO Cells, and DRG Neurons. Whole-cell patch clamp recordings were performed at room temperature using an Axopatch-200B amplifier (Axon Instruments) with a Digidata 1440B (Axon Instruments). In this study, we only examined small-diameter mouse DRG neurons (<25 μM) and small-diameter human DRG neurons (<55 μM). The patch pipettes were pulled from borosilicate capillaries (World Precision Instruments) using a P-97 Flaming/Brown micropipette puller (Sutter Instrument). Pipette resistance was 4-6 MΩ for whole-cell and outside-out recording. For inward current recordings in mouse and human DRG neurons, HEK293 cells, and CHO cells, the internal solution contains (in mM): 140 CsCl, 10 EGTA, 10 HEPES, and 2 Mg-ATP, adjusted to pH 7.3 with CsOH. Whole cell recordings were performed in an extracellular solution that contains (in mM): 140 NaCl, 5 KCl, 2 MgCl2, 10 HEPES, and 10 glucose, adjusted to pH 7.4 with NaOH and osmolarity to 300-310 mOsm. […] Action potential recordings were performed in small-diameter DRG neurons, with the following solutions: i) internal pipette solution contains: 126 mM K-gluconate, 10 mM NaCl, 1 mM MgCl2, 10 mM EGTA, 10 mM HEPES and 2 mM Na-ATP, adjusted to pH 7.4 with KOH and osmolarity to 295-300 mOsm), and ii) extracellular solution contains: 140 mM NaCl, 5 mM KCl, 2 mM MgCl2, 2 mM CaCl2, 10 mM HEPES, 10 mM glucose, adjusted to pH 7.4 with KOH.

Another series relates to DRG neurons. The series can be described thus: Calcium imaging in cultured DRG neurons of Pirt-GCaMP3 mice. The class given is cell-based, mouse. The note with it: for DRG neurons showing Ca2+ increase / responses: 544 neurons from 3 mice. On the procedure:
Primary Cultures of Mouse and Human Sensory Neurons. […] Cells were mechanically dissociated with a flame polished Pasteur pipette in the presence of 0.05% DNase I (Sigma).
Ca^2+ Imaging. […] The imaging buffer includes 140 mM NaCl, 10 mM D-(+)-Glucose, 1 mM MgCl2, 2 mM CaCl2, 5 mM KCl, 10 mM HEPES, pH=7.4, osmolarity=320 mOsm/L. Calcium signals were measured using green emitted light in a 3 s interval. Ca ^2+ signal amplitudes were presented as ΔF/F0=(Ft−F0)/F0 as ratio of fluorescence difference (Ft−F0) to basal value (F0). The average fluorescence intensity in the baseline period was taken as F0. Ca ^2+ imaging was also analyzed in HEK293-TRPA1 cell line after loading cells with […] fura2-AM (Invitrogen) for 40 min in the Ca^2+ imaging buffer. Ca^2+ imaging protocol was a ratio metric method with 340/380-nm wavelength light for dual excitation. Data were presented as ΔR/R0, determined as the fraction ΔR (Rt−R0) of the increase of a given ratio over baseline ratio (R0).

The test system of series [1] is small-diameter DRG neurons. The series can be described thus: Patch clamp, inward currents and action potentials in small-diameter mouse DRG neurons. The class given is cell-based. The settings on record: for small-diameter neurons responding with inward currents or action potentials: AITC 15/90, miR-711 15/130. The procedure:
Primary Cultures of Mouse and Human Sensory Neurons. DRGs or TGs were removed aseptically from mice (4-6 weeks) and incubated with collagenase (1.25 mg/mL, Roche)/dispase-II (2.4 units/mL, Roche) at 37° C. for 90 min, then digested with 0.25% trypsin for 8 min at 37° C., followed by 0.25% trypsin inhibitor. Cells were mechanically dissociated with a flame polished Pasteur pipette in the presence of 0.05% DNase I (Sigma). DRG cells were plated on glass coverslips and grown in a neurobasal defined medium (with 2% B27 supplement, Invitrogen) with 5 μM AraC and 5% CO2 at 36.5° C. DRG neurons were grown for 24 hr before use.
as §1

The next series relates to naive mice. The series is classed as in vivo, mouse. The procedure: Behavioral Assessment for Scratching (Itch) and Wiping (Pain). Mice were shaved on the cheek or nape after a brief anesthesia with isoflurane. Before experiments, mice were habituated in small plastic chambers (14×18×12 cm) daily for two days. The room temperature and humidity remained stable for all the experiments. […] After the injection, the number of scratches in 60 min was counted. A scratch was counted when a mouse lifted its hind paw to scratch the shaved region and returned the paw to the floor or to the mouth. A bout of wiping was defined as a continuous wiping movement with a forepaw directing at the area of the injection area (Shimada and LaMotte, Pain 2008, 139, 681-687). Scratching and wiping behavior was videoed for 30 min or 60 min using Sony HDR-CX610 camera. The video was subsequently played back offline and the numbers of scratches and wipes were quantified in a blinded manner.

In a further series the test system is mice. The series can be described thus: Pain tests for mechanical and thermal sensitivity after intraplantar injection. The note with it: miR-711 1 mM, AITC 10 mM, 10 μL. The class given is in vivo, mouse. On the procedure:
Pain Tests for Mechanical and Thermal Sensitivity. Mice were habituated to the environment for at least 2 days before the testing. All the behaviors were tested blindly. […] For testing mechanical sensitivity, we confined mice in boxes (14×18×12 cm) placed on an elevated metal mesh floor and stimulated their hind paws with a series of von Frey hairs with logarithmically increasing stiffness (0.16-2.00 g, Stoelting), presented perpendicularly to the central plantar surface. We determined the 50% paw withdrawal threshold by Dixon's up-down method (Dixon, Annu. Rev. Pharmacol. Toxicol. 1980, 20, 441-462). Thermal sensitivity was tested using Hargreaves radiant heat apparatus (Hargreaves et al., Pain 1988, 32, 77-88) (IITC Life Science). For the radiant heat test, the basal paw withdrawal latency was adjusted to 10-15 s, with a cutoff of 25 s to prevent tissue damage.

[2] abbreviates: high concentrations, 5 and 10 mM, 5 μL.
The mark [3] stands for this setting: low concentrations, 10 and 100 μM.
[4] abbreviates: miR-711 50 μM, histamine 500 μM, CQ 1,000 μM, AITC 200 μM.

Chain of hTRPA1 (O75762 whole entry): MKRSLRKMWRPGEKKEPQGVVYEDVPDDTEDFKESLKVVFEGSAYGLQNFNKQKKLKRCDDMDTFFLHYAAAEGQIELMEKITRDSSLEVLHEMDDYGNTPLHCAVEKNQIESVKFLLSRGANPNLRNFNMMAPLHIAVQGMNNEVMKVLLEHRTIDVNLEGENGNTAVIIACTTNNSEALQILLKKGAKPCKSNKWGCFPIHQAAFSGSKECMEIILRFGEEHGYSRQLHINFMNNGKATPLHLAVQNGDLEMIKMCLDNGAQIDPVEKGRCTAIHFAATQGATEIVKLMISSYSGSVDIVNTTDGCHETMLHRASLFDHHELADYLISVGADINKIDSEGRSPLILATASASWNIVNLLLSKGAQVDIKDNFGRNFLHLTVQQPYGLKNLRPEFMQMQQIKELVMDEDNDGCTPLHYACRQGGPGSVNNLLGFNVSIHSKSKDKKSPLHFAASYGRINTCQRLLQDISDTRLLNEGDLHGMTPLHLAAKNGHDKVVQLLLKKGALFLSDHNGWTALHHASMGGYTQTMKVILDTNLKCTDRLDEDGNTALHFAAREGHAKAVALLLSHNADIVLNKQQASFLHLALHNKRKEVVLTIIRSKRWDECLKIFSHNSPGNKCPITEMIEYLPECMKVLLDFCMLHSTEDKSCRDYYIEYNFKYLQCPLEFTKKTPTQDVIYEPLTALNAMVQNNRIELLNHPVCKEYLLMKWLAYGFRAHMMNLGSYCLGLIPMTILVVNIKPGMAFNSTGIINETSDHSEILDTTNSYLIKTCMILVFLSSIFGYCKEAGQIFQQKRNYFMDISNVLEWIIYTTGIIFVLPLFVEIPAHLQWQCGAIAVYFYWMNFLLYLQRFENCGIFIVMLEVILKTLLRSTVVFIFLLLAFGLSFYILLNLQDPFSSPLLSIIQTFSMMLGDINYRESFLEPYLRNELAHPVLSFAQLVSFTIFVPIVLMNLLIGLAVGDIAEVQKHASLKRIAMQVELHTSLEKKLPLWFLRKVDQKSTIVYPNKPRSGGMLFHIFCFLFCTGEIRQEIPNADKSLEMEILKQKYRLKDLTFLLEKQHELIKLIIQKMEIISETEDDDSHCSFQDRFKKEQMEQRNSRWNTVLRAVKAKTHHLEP

With `CCC(=N\O)/C(C)=C/c1ccc(F)cc1` [A967079, (1E,3E)-1-(4-Fluorophenyl)-2-methyl-1-pentene-3-one oxime], at hTRPA1 (A967079 10 and 50 μM), the “block of miR-711-evoked currents” value is listed as “dose-dependently blocked”. In addition, the “block of miR-711-evoked calcium responses in DRG neurons” value with DRG neurons (miR-711 50 μM, A967079 10 μM) is “completely blocked”. In series [1] (A967079 10 μM), the “block of miR-711-induced action potentials” value is given as “blocked” and the “block of miR-711-induced inward currents in DRG neurons” value was “blocked”.

For the molecule `C=CCN=C=S` [AITC], in the series with naive mice (setting [2]), the “scratching after intradermal cheek injection” value is listed as “not scratching” and the “wiping after intradermal cheek injection” value was “induced wiping”. For the same molecule, in the series with naive mice (setting [3]), the “itch after intradermal cheek injection” value is on record as “mild itch” and the “pain after intradermal cheek injection” value was “no pain”. In the series on naive mice (naive mice, 1 mM, 5 μL), the “scratching (itch) after intradermal cheek injection” value (shortened to “scratching (itch)”) is “induced both scratching and wiping”; the “wiping (pain) after intradermal cheek injection” value is “induced both scratching and wiping”. Moreover, in the series on mice, the heat hyperalgesia result was “elicited marked hyperalgesia and allodynia”; the mechanical allodynia result is “elicited marked hyperalgesia and allodynia”. Moreover, in the series with DRG neurons (histamine 500 μM, CQ 1,000 μM, AITC 200 μM), the “miR-711-responsive DRG neurons that also responded” value is given as “all”. The “DRG neurons showing Ca2+ increase / responses” value with DRG neurons (setting [4]) amounted to 22.6%. The “small-diameter neurons responding with inward currents or action potentials” value in series [1] worked out at 16.7%.

On to “NH2-FRNELAYPVLTFGQL-COOH (H-FRNELAYPVLTFGQL-OH) [blocking peptide]”, for which, in the series with hTRPA1 (peptide 25 μM), the “effect on AITC-induced inward current” value is “did not affect” and the “inhibition of miR-711-induced TRPA1 inward currents” value is “suppressed”.

In the case of “miR-711: mmu-miR-711: gggacccggggagagauguaag (SEQ ID NO: 5) (GGGACCCGGGGAGAGAUGUAAG; chemistry not given here)”, the “scratching after intradermal cheek injection” value with naive mice (0.01 and 0.1 mM) is “mild but significant scratching”. The “miR-711-induced pruritus in knockout mice” value in the series with naive mice (Tlr7−/− mice versus WT) is reported as “unaltered”. For the same molecule, in the series with naive mice (Trpa1−/− mice versus WT), the “miR-711-induced acute itch in knockout mice” value is listed as “abrogated”. For the same molecule, in the series on naive mice (all the concentrations tested), the “pain (wiping) after intradermal cheek injection” value is “failed to evoke pain (wiping)”. Moreover, in the series with naive mice (compared with chloroquine (CQ) and histamine, first 60 sec), the “onset (latency) of pruritus” value is given as “very rapid, with a shorter latency”. Further, in the series on naive mice (highest dose, 5 mM, 5 μL), the “scratching after intradermal cheek injection” value was found to be 395.2±32.8 bouts per hour. For the same molecule, the “scratching (itch)” value in the series on naive mice (naive mice, 1 mM, 5 μL) is “evoked marked scratching”. In the series on naive mice (naive mice, 1 mM, 5 μL, listed as mmu-miR-711), the “scratching (itch)” value is reported as “able to evoke pruritus”. In the series with mice, the heat hyperalgesia entry was “failed to induce” and the mechanical allodynia result is “failed to induce”. In addition, the “desensitization of TRPA1 after second application” value with hTRPA1 (10 μM) is on record as “did not induce obvious desensitization”. In the series with hTRPA1 (10 μM, I/V curve), the current-voltage relationship result was “outward rectification” and the “reversal potential of evoked current” value was determined as 0 mV. Also, in the series with hTRPA1 (bath application, miRNAs and core sequence 10 μM, AITC 50 μM), the inward currents entry is “produced inward currents”. Further, in the series with hTRPA1 (compared with AITC), the “potency for inducing TRPA1 activation (dose-response curve)” value is listed as “more potent than AITC”. In the series with hTRPA1 (miR-711 10 μM versus AITC 50 μM, bath perfusion), the “latency of inward currents” value is reported as “shorter than that of AITC”. For the same molecule, in the series on DRG neurons (10 μM), the “calcium signaling in DRG neurons” value was “did not evoke meaningful calcium signaling”. Further, the “DRG neurons showing Ca2+ increase / responses” value with DRG neurons (setting [4]) was 3.9%. In the series on DRG neurons (miR-711 50 μM, 15 of 310 neurons), the “DRG neurons showing calcium responses” value was found to be 4.8%. In series [1] (10 μM, WT mice), the “action potentials in small-diameter DRG neurons” value was “induced action potentials” and the “inward currents in small-diameter DRG neurons” value is listed as “induced rapid inward currents”. For the same molecule, the “small-diameter neurons responding with inward currents or action potentials” value in series [1] worked out at 11.5%. In series [1] (TRPA1-deficient neurons), the “miR-711-induced excitation (action potentials)” value was “lost”. In series [1] (Trpa1 knockout mice), the “miR-711-induced inward currents in DRG neurons of knockout mice” value was “abolished”. Besides, in series [1] (compared with AITC), the action potential duration result is reported as “shorter duration” and the “after-hyperpolarization of the action potentials” value is “did not differ”.
